Among the data in patent US12351580B2, “NLRP3 modulators” (Innate Tumor Immunity, Inc., priority 2017, dated 2025) are EC50 values, retold here.

Structures are written as SMILES.

For this assay, the target named is T1, TLR8 (Homo sapiens, UniProt Q9NR97).
T1 construct: host or cells: HEK-Blue cells (human HEK) co-expressing TLR8 and an NF-kB/AP1-inducible SEAP reporter
T1 sequence (Q9NR97 27-1041): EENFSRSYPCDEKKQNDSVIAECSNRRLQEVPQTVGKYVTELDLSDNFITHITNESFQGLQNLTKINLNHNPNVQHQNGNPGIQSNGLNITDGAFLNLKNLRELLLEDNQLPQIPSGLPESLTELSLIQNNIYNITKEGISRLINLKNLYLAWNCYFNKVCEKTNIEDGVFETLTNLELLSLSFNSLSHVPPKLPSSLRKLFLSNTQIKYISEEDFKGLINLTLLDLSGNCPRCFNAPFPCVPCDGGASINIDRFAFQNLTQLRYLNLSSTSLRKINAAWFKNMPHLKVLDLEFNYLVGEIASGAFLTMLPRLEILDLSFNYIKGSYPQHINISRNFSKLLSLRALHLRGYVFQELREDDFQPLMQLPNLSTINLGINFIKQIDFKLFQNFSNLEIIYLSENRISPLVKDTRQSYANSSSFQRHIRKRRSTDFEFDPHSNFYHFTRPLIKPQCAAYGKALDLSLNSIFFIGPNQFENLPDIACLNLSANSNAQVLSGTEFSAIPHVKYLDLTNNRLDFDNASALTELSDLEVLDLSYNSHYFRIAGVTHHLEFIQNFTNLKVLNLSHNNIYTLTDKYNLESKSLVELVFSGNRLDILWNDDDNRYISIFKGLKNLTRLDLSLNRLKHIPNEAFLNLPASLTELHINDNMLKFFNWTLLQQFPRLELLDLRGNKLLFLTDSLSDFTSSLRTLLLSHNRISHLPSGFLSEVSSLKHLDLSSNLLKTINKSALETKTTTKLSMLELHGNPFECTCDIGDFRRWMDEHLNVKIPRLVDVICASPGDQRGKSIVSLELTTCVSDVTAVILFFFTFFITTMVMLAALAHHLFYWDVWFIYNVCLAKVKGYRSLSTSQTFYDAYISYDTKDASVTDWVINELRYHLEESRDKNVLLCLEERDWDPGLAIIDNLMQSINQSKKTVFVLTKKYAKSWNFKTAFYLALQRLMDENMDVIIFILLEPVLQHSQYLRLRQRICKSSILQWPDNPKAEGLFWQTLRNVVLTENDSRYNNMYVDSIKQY
In words: In vitro human TLR8 binding reporter assay (HEK-Blue, NF-kB/AP1-inducible SEAP). Format: cell-based. The following applies: activity range symbols. How it is done:
In Vitro Human TLR7 and TLR8 Binding Reporter Assays
Logarithmically-growing human HEK-Blue cells co-expressing a TLR7 or TLR8 gene and a NF-kB/AP1-inducible SEAP (secreted embryonic alkaline phosphatase; Invivogen, San Diego, CA) reporter gene are added to individual wells of a 384-well plate (15,000 cells per 20 μL per well) and maintained for 24 h at 37° C., 5% CO2. Test compounds or DMSO are distributed to separate wells the next day using acoustic liquid handling technology (100 nL per well) and cells are subsequently incubated for 18 h at 37° C., 5% CO2. Cellular SEAP production is measured using an Envision plate reader instrument thirty minutes after adding freshly-made Quanti-Blue reagent (prepared by following manufacturer instructions; Invivogen, San Diego, CA) to the HEK-Blue TLR Nf-kB-SEAP cell reactions. All EC50 values (half-maximal effective concentration) are determined using proprietary data analysis software.
In the case of `CN(C)C(=O)CCCn1c(CN2CCCC2=O)nc2c(N)nc3cc(Br)ccc3c21` [Compound 215], the EC50 is greater than 100 µM.

`COC(=O)CCCn1c(CN2CCCC2=O)nc2c(N)nc3cc(Cl)ccc3c21` [Compound 216] showed a concentration giving a half-maximal response (EC50) greater than 100 µM. The value for `CCN(Cc1nc2c(N)nc3cc(Cl)ccc3c2n1CCCC(=O)NC)C(C)=O` [Compound 217] was greater than 100 µM; that for `CCN(Cc1nc2c(N)nc3cc(Br)ccc3c2n1CCCC(=O)OC)C(C)=O` [Compound 218] was greater than 100 µM; that for `CCN(Cc1nc2c(N)nc3cc(Cl)ccc3c2n1CCCC(=O)OC)C(C)=O` [Compound 219] was greater than 100 µM. In the case of `CCN(Cc1nc2c(N)nc3cc(Cl)ccc3c2n1CCCC(=O)N1CCOCC1)C(C)=O` [Compound 220], the EC50 is greater than 100 µM. The value for `CCN(Cc1nc2c(N)nc3cc(Cl)ccc3c2n1CCCC(=O)N1CCN(C)CC1)C(C)=O` [Compound 221] was greater than 100 µM; that for `CCN(Cc1nc2c(N)nc3cc(Cl)ccc3c2n1CCCC(=O)N1CCCC1)C(C)=O` [Compound 222] was greater than 100 µM; that for `CCN(Cc1nc2c(N)nc3ccccc3c2n1CCC(=O)N1CCS(=O)(=O)CC1)C(=O)OC(C)(C)C` [Compound 223] was greater than 100 µM. The value for `CCNCc1nc2c(N)nc3cc(Br)ccc3c2[nH]1` [Compound 225] was 1 to 20 µM; that for `CCN(Cc1nc2c(N)nc3cc(C(F)(F)F)ccc3c2n1CCCC(=O)NC)C(=O)OC(C)(C)C` [Compound 226] was greater than 100 µM; that for `CCNCc1nc2c(N)nc3cc(C(F)(F)F)ccc3c2n1CCCC(=O)OC` [Compound 227] was greater than 100 µM. The compound `CCN(Cc1nc2c(N)nc3cc(C(F)(F)F)ccc3c2n1CCCC(=O)N1CCOCC1)C(=O)OC(C)(C)C` [Compound 228] registered an EC50 greater than 100 µM.

With `CCN(Cc1nc2c(N)nc3cc(C(F)(F)F)ccc3c2n1CCCC(=O)OC)C(C)=O` [Compound 229], the EC50 was greater than 100 µM. Regarding `COc1ccc(-c2ccc3c(c2)nc(N)c2nc(CN4CCCC4=O)[nH]c23)cc1` [Compound 230], the EC50 is greater than 100 µM. In turn, `CC(=O)NCc1nc2c(N)nc3ccccc3c2[nH]1` [Compound 233] gave an EC50 greater than 100 µM. Take `Nc1nc2ccccc2c2[nH]c(CN3CCCC3=O)nc12` [Compound 278]: the EC50 is greater than 100 µM.

Compound `Nc1nc2cc(-c3cccnc3)ccc2c2[nH]c(CN3CCCC3=O)nc12` [Compound 279, 1-[(4-amino-7-pyridin-3-yl-1H-imidazo[4,5-c]quinolin-2-yl)methyl]pyrrolidin-2-one] yielded an EC50 greater than 100 µM. As to `Nc1nc2cc(-c3ccccc3)ccc2c2[nH]c(CN3CCCC3=O)nc12` [Compound 280, 1-[(4-amino-7-phenyl-1H-imidazo[4,5-c]quinolin-2-yl)methyl]pyrrolidin-2-one], the EC50 is greater than 100 µM.

With `Nc1nc2cc(-c3ccccc3Cl)ccc2c2[nH]c(CN3CCCC3=O)nc12` [Compound 281, 1-[[4-amino-7-(2-chlorophenyl)-1H-imidazo[4,5-c]quinolin-2-yl]methyl]pyrrolidin-2-one], the EC50 was greater than 100 µM.

`Cc1ccccc1-c1ccc2c(c1)nc(N)c1nc(CN3CCCC3=O)[nH]c12` [Compound 282, 1-[[4-amino-7-(2-methylphenyl)-1H-imidazo[4,5-c]quinolin-2-yl]methyl]pyrrolidin-2-one] yielded an EC50 greater than 100 µM.

`COc1ccccc1-c1ccc2c(c1)nc(N)c1nc(CN3CCCC3=O)[nH]c12` [Compound 283, 1-[[4-amino-7-(2-methoxyphenyl)-1H-imidazo[4,5-c]quinolin-2-yl]methyl]pyrrolidin-2-one] came in with an EC50 greater than 100 µM. As to `Nc1nc2cc(-c3ccccc3F)ccc2c2[nH]c(CN3CCCC3=O)nc12` [Compound 284, 1-[[4-amino-7-(2-fluorophenyl)-1H-imidazo[4,5-c]quinolin-2-yl]methyl]pyrrolidin-2-one], the EC50 is greater than 100 µM.
